The test system of series [1] is Genetically diabetic db/db mice (C57BL/ksJ Jcl-dbm db/db mice). The series can be described thus: Blood sugar lowering actions in genetically diabetic mice. The series is classed as in vivo. The following applies: serum glucose vs control group. The method, then:
(§1) Genetically diabetic db/db mice (C57BL/ksJ Jcl-dbm db/db mice) older than 8 weeks were grouped depend on their blood sugar levels of the prior measurements in order to divide groups with almost equal mean value of the sugar level. The respective groups of db/db mice were designates as the following groups: the group given the compound of the present invention, the group of troglitazone, and the group given no administrating group. For the compounds of the present invention, two doses: 75 mg/kg and 150 mg/kg, and for troglitazone, a dose of 150 mg/kg were individually given to the mice as a forced oral administration once daily for 14 days successively. These agents were suspended in 3.0% Arabic gum solution for administration. To the control group, only the same volume of 3.0% Arabic gum solution was administered. On the next day of the final administration, each mouse was […] for sampling. The blood samples were subject to serum separation. The glucose level in the serum of each group was measured. Then, a reduction rate in a glucose level (%) compared to the control group was calculated with mean value of each group according to the equation below. […] [formula]

The subject of the next series is db/db mice. The series can be described thus: Antihyperlipidemic activities in genetically diabetic mice. The series is classed as in vivo. As to conditions: 150 mg/kg p.o. once daily for 14 days, serum. How it is done:
as §1
In the same way as described in EXAMPLE 4, db/db mice were grouped in the manner by which the respective groups had almost equivalent mean blood sugar levels. The compounds 1, 3, 13, 21 and 22 of the present invention, suspended in 3.0% Arabic gum solution, were orally administrated, with a dose of 150 mg/kg, once daily for successive 14 days. The control group of mice were given the vehicle solution only. On the next day of the final administration, each mouse was bled for sampling. The blood was subjected for serum separation, and then subjected to measurements of β-lipoproteins, free fatty acids, and triglycerides. The reduction rate (%) of each measurement compared to the control group was calculated by the equation indicated in EXAMPLE 4. […] (Table 9).

Series [2] relates to fructose-induced hyperlipidemic rats. The series is described as follows: Hypotriglyceridemic activity in fructose-induced hyperlipidemic rats. As to conditions: fructose-loaded rats, 30 mg/kg p.o. once daily for 7 days; for inhibition in vivo at 30 mg/kg: Rattus norvegicus, po, 168 h, read-out: Reduction in Serum Triglyceride (%). It is filed as in vivo, Sprague Dawley rats. How it is done:
The compounds were tested for a hypotriglyceridemic activity in fructose-induced hyperlipidemic rats in accordance with the method described in Nippon Yakurigaku Zasshi, 92 (3), 175-180 (1988). Sprague Dawley rats were grouped by the ranking method of body weight. Then, instead of drinking water, rats were given 75% fructose aqueous ad libitum for one week, thereby, resulting in the state of hypertriglyceridemia. The compounds of the present invention, suspended in 3% Arabic gum aqueous solution, and a dose of 30 mg/kg was orally administrated once daily for 7 days during the fructose-loading period. The control group of rats were given 3% Arabic gum aqueous solution only. Two hours later of the final administration, the rats were bled from the abdominal aorta to measure serum triglycerides and total cholesterol. The reduction rate (%) of each measurement compared to the control groups was calculated according to the equation indicated in EXAMPLE 4.

Series [3] relates to 3T3-L1 preadipocyte cells. The series is described as follows: Differentiation-inducing actions on adipose cells (oil red-O staining, absorbance at 490 nm). The series is classed as cell-based. As to conditions: 3T3-L1, oil red-O extract absorbance at 490 nm, ratio to control group (1.0). The method, then:
The cloned cell line 3T3-L1 of the preadipocyte cells at the 9-20th generation were used. The cell suspension at a concentration of 2×10^4 cells/ml was added 500 μl/well in a 24 well microplate. Then, the microplates were cultured at 37° C. in the atmosphere of 5% CO2 for 4 days with D-MEM containing 5% inactivated fetal calf serum (hereinafter abbreviated as “FCS D-MEM”). Next, the following procedures were conducted.
(1) To test compound of this invention, 500 μl/well of the following solutions was added to each well:
1) test compound-containing medium (T-MEM) in which the test compound in a stock solution (30 mM in DMSO) was diluted with FCS D-MEM containing 0.1 μM dexamethazone and 100 ng/ml insulin (hereinafter abbreviated as DEX-Ins-FCS D-MEM);
2) FCS-D-MEM; 3) DEX-Ins-FCS D-MEM; 4) 0.1% DMSO-containing DEX-Ins-FCS D-MEM for me control wells.
(2) After above additions were done, the culture plates were incubated at 37° C. in 5% CO2 for 3 days. Then, the same operations as in the procedure (1) were repeated for exchange of the culture medium. The culture plates were incubated at 37° C. in 5% CO2 for further 3 days.
(3) After incubation, the culture medium was removed from the culture plates. Then, the FCS D-MEM was added to the FCS D-MEM-wells, and next the medium prepared for containing 100 ng/ml of insulin with the FCS D-MEM (hereinafter abbreviated as “Ins-FCS D-MEM”) was added at 500 μl/well to the T-MEM wells and DEX-Ins-FCS D-MEM wells. All culture plates were incubated for 4 days.
(4) After incubation, the culture medium was removed. For cell fixation, 500 μl/well of 10% formalin in neutral buffer was added, and left at the room temperature for approximately 20 minutes or longer. Then the formalin solution was removed, and 60% 2-propanol solution was added at 500 μl/well, then quickly removed, and the oil red-O staining solution was added at 250 μl/well. The culture plates were sealed with plate seals, and left at room temperature for 30 minutes or longer. After incubation, the staining solution was removed, and the 60% 2-propanol solution was added at 500 μl/well, and quickly removed. The cells were rinsed with water a few times, and then water drops were flipped away. A cell-lysis buffer was added at 500 μl/well, and the culture plates were sealed with plate seals, and left at 37° C. for 1 hour to extract the pigments. Next, 300 μl/well of the extract solution was transferred at a 96 well micro-plates, and then the absorbance of each extract was measured at wavelength of 490 nm.
The absorbance ratios of the respective test compounds-groups to the control group, the mean absorbance of which was designated as 1.0, are shown in Table 8. Based on the judgement that the absorbance higher than that of the control group indicates a greater differentiation-inducing activity of the test compound, the compounds of the present invention were determined to have the activity to induce differentiation of preadipocytes to adipocytes, resulting in elevating insulin sensitivity of organs. Thereby, this activity would confer the efficacy in the therapy of diabetes.

A further series has as its system mice. The series can be described thus: Acute toxicity tests with single dosing in mice. As to conditions: 2000 mg/kg single oral dose, observed for 2 weeks. The series is classed as in vivo. The method, then:
The compounds (the compound 1 and 10) of the present invention were singly orally administered to each mouse at a dose of 2000 mg/kg.

Series [4] relates to high cholesterol-fed hamsters. The series is described as follows: Lipid lowering effects in high cholesterol-fed hamsters. The following applies: serum, negative = elevation. It is filed as in vivo, Syrian hamsters. The source says: According to the method described in Jpn Pharmacol Ther, 23 (suppl 4), s1047-1053 (1995), male Syrian hamstars were fed for 3 weeks with 1% cholesterol 10% coconut oil (W/W) supplemented diet, and thereby, became to be hypercholesterolemia models. Prior to administration of the compounds, under ether anesthesia, the hamsters were bled from the orbital vein for measurement of serum total cholesterol. They were grouped in the manner by which the respective groups had almost equal serum total cholesterol levels. The normal group of hamsters were fed ordinary diet. Thereafter, the compound 1 and bezafibrate were orally administered once daily at doses of 15 (for only compound 1), 30, 60 and 120 mg/kg for 7 days. Even during the treatment period, cholesterol loading was continued. Four hours later of the final administration, the hamsters were bled by cardiac puncture. The total cholesterol and triglycerides in the serum obtained were measured by the enzymatic method. The results are shown in Table 11 (the negative values mean elevation rates.)
The actions of the compounds of the present invention at a dose of 15 mg/kg were measured in the same method as described in EXAMPLE 8.

Series [5] concerns Salmonella typhimurium TA100 and TA98. The series is described as follows: Mutagenesis tests (reverse mutation test). The series is classed as cell-based. As to conditions: TA100 and TA98, direct method (−s9mix) and metabolically activated method (+s9mix). The method, then:
In order to examine mutagenecity of the compound 1, the reverse mutation test was conducted with use of Salmonella typhimurium TA100 and TA98.

Where [6] appears, read: 75 mg/kg oral once daily for 14 days.
[7] abbreviates: 150 mg/kg oral once daily for 14 days.
The mark [8] stands for this setting: 15 mg/kg oral once daily for 7 days.
[9] abbreviates: 30 mg/kg oral once daily for 7 days.
The mark [10] stands for this setting: 60 mg/kg oral once daily for 7 days.
The mark [11] stands for this setting: 120 mg/kg oral once daily for 7 days.

`N#CN=C1NC(=O)C(=Cc2ccc(COCc3ccccc3)cc2)S1` [Compound 3, 2-(N-Cyanoimino)-5-[4-(benzyloxymethyl)benzylidene]thiazolidin-4-one]: in series [1] (setting [6]), the “Reduction in Blood Glucose (%)” value was determined as 24%. The “Reduction in Blood Glucose (%)” value in series [1] (setting [7]) is listed as 49%. Also, in the series with db/db mice, the “Reduction Rate (%) Free Fatty Acids” value was found to be 58%, the “Reduction Rate (%) Triglycerides” value amounted to 85% and the “Reduction Rate (%) β-lipoproteins” value came out at 65%. Also, in series [2], the inhibition in vivo at 30 mg/kg was 64%. Also, the “Absorbance Ratio” value in series [3] was determined as 1.48.

With `N#CN=C1NC(=O)C(=Cc2ccc(OCCc3ccccc3)cc2)S1` [Compound 10, 2-(N-Cyanoimino)-5-(4-phenethyloxybenzylidene)thiazolidin-4-one], in the series with mice, the “Survival after single oral dose” value is “all 3 mice given the respective compounds survived”. Moreover, in series [2], the inhibition in vivo at 30 mg/kg amounted to 39%. Besides, the “Absorbance Ratio” value in series [3] is listed as 2.12.

Take `N#CN=C1NC(=O)C(=Cc2ccc(Oc3ccccc3)cc2)S1` [Compound 22, 2-(N-Cyanoimino)-5-(4-phenoxybenzylidene)thiazolidin-4-one]: the “Reduction in Blood Glucose (%)” value in series [1] (setting [6]) is listed as 16%. In series [1] (setting [7]), the “Reduction in Blood Glucose (%)” value is 34%. In the series on db/db mice, the “Reduction Rate (%) Free Fatty Acids” value amounted to 41%, the “Reduction Rate (%) Triglycerides” value was 65% and the “Reduction Rate (%) β-lipoproteins” value is recorded as 56%. For the same compound, in series [2], the inhibition in vivo at 30 mg/kg turned out to be 65%. Besides, the “Absorbance Ratio” value in series [3] is given as 1.73.

With `N#CN=C1NC(=O)/C(=C\c2ccc(C=Cc3ccccc3)cc2)S1` [Compound 1, 2-(N-Cyanoimino)-5-[(E)-4-stylylbenzylidene]thiazolidin-4-one], the “Reduction Rate (%) Total cholesterol” value in series [4] (setting [8]) is on record as 26%; in series [4] (setting [9]), 25%; in series [4] (setting [10]) it was 29%; in series [4] (setting [11]), 41%. In addition, the “Reduction Rate (%) Triglyceride” value is 60% in series [4] (setting [8]), 62% in series [4] (setting [9]), 69% in series [4] (setting [10]) and 80% in series [4] (setting [11]). The entries for the “Reduction in Blood Glucose (%)” value in series [1] (setting [6]) and in series [1] (setting [7]) were 31% and 37%, respectively. For the same compound, the “Survival after single oral dose” value in the series with mice is “all 3 mice given the respective compounds survived”. Further, the “Mutagenicity (number of reversely mutated colonies)” value in series [5] was “non-mutagenic”. In addition, the “Reduction Rate (%) Free Fatty Acids” value in the series with db/db mice amounted to 39%. The “Reduction Rate (%) Triglycerides” value in the series on db/db mice is given as 69%. In the series with db/db mice, the “Reduction Rate (%) β-lipoproteins” value came out at 51%. Further, the “Reduction in Serum Triglyceride (%)” value in series [2] was 47%. For the same compound, the “Absorbance Ratio” value in series [3] was determined as 1.46.

The values above are taken from patent US6667328B2, “Therapeutic agents for diabetes” (Fujimoto Brothers Co., Ltd., priority 2000, dated 2003).
